Measured values from US20240376084A1, “INHIBITORS OF ALPHA-HEMOLYSIN OF STAPHYLOCOCCUS AUREUS” (Helmholtz-Zentrum Fur Infektionsforschung GmbH, priority 2021, published 2024).

Legend:
[1] = biological target: hemolysin alpha from Staphylococcus aureus (Staphylococcus aureus, UniProt P09616); experiment: cell-based
[2] = biological target: S. aureus Alpha hemolysin (Staphylococcus aureus, UniProt P09616); experiment: cell-based; conditions: A549-LDH Assay activity
Sequence of S. aureus Alpha hemolysin (P09616 27-319 limits assumed): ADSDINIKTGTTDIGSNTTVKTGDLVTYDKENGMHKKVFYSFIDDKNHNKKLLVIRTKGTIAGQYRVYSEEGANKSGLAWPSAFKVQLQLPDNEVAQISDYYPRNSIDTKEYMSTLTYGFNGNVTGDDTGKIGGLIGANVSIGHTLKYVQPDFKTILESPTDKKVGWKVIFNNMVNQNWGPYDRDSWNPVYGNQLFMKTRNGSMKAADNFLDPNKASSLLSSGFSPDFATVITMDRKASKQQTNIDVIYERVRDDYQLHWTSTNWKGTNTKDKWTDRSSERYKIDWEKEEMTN

Sequence of hemolysin alpha from Staphylococcus aureus (P09616 27-319 limits assumed): as above

Structure (SMILES) | IC50 [1] | EC50 [2] | EC50 [1]
Cc1cc2[nH]c(=O)c(=O)[nH]c2cc1S(=O)(=O)Nc1cc(C)c(-c2cccc(N(C)C)c2)c(C)c1 [Compound 59, N-(3′-(dimethylamino)-2,6-dimethyl-[1,1′-biphenyl]-4-yl)-7-methyl-2,3-dioxo-1,2,3,4-tetrahydroquinoxaline-6-sulfonamide] | 30 to 100 nM | 100 to 1000 nM | 
O=c1[nH]c2cc(Cl)c(S(=O)(=O)Nc3ccc(-c4ccccc4)cc3)cc2[nH]c1=O [Compound 98, N-([1,1′-biphenyl]-4-yl)-7-chloro-2,3-dioxo-1,2,3,4-tetrahydroquinoxaline-6-sulfonamide] | 100 to 1000 nM | 100 to 1000 nM | 
COc1ccc(-c2ccc(NS(=O)(=O)c3cc4[nH]c(=O)c(=O)[nH]c4cc3C)cc2Br)cc1F [Compound 302, N-[3-bromo-4-(3-fluoro-4-methoxy-phenyl)phenyl]-7-methyl-2,3-dioxo-1,4-dihydroquinoxaline-6-sulfonamide] |  | < 30 nM | < 30 nM
O=c1[nH]c2cc(F)c(S(=O)(=O)Nc3ccc(-c4ccccc4F)c(Cl)c3)cc2[nH]c1=O [Compound 36, N-(2-chloro-2′-fluoro-[1,1′-biphenyl]-4-yl)-7-fluoro-2,3-dioxo-1,2,3,4-tetrahydroquinoxaline-6-sulfonamide] | < 30 nM | 100 to 1000 nM | 
O=c1[nH]c2cc(Br)c(S(=O)(=O)Nc3ccc(OC(F)(F)F)cc3)cc2[nH]c1=O [Compound 15, 7-bromo-2,3-dioxo-N-(4-(trifluoromethoxy)phenyl)-1,2,3,4-tetrahydroquinoxaline-6-sulfonamide] | < 30 nM | 30 to 100 nM | 
Cc1cc2[nH]c(=O)c(=O)[nH]c2cc1S(=O)(=O)Nc1ccc(-c2ccccc2F)c(Cl)c1 [Compound 5, N-(2-chloro-2′-fluoro-[1,1′-biphenyl]-4-yl)-7-methyl-2,3-dioxo-1,2,3,4-tetrahydroquinoxaline-6-sulfonamide] | < 30 nM | 30 to 100 nM | 
COc1cc2[nH]c(=O)c(=O)[nH]c2cc1S(=O)(=O)Nc1ccc(Br)cc1 [Compound 383, N-(4-bromophenyl)-7-methoxy-2,3-dioxo-1,4-dihydroquinoxaline-6-sulfonamide] |  | 100 to 1000 nM | 1000 to 3500 nM
Cc1cc(NS(=O)(=O)c2cc3[nH]c(=O)c(=O)[nH]c3cc2F)cc(C)c1-c1ccccc1 [Compound 74, N-(2,6-dimethyl-[1,1′-biphenyl]-4-yl)-7-fluoro-2,3-dioxo-1,2,3,4-tetrahydroquinoxaline-6-sulfonamide] | 100 to 1000 nM | 100 to 1000 nM | 
N#Cc1cc2[nH]c(=O)c(=O)[nH]c2cc1S(=O)(=O)Nc1ccc(OC(F)(F)F)cc1 [Compound 216, 7-cyano-2,3-dioxo-N-(4-(trifluoromethoxy)phenyl)-1,2,3,4-tetrahydroquinoxaline-6-sulfonamide] |  | 100 to 1000 nM | 100 to 1000 nM
Cc1cc2[nH]c(=O)c(=O)[nH]c2cc1S(=O)(=O)NC12CC(c3ccccc3)(C1)C2 [Compound 230, 7-methyl-2,3-dioxo-N-(3-phenylbicyclo[1.1.1]pentan-1-yl)-1,2,3,4-tetrahydroquinoxaline-6-sulfonamide] |  | 100 to 1000 nM | 100 to 1000 nM
Cc1cc2[nH]c(=O)c(=O)[nH]c2cc1S(=O)(=O)Nc1ccc(-c2csc(C#N)c2)c(Cl)c1 [Compound 290, N-[3-chloro-4-(5-cyano-3-thienyl)phenyl]-7-methyl-2,3-dioxo-1,4-dihydroquinoxaline-6-sulfonamide] |  | 30 to 100 nM | < 30 nM
COc1cc(NS(=O)(=O)c2cc3[nH]c(=O)c(=O)[nH]c3cc2C)ccc1Br [Compound 121, N-(4-bromo-3-methoxyphenyl)-7-methyl-2,3-dioxo-1,2,3,4-tetrahydroquinoxaline-6-sulfonamide] | 100 to 1000 nM | 1000 to 6000 nM | 
Cc1cc2[nH]c(=O)c(=O)[nH]c2cc1S(=O)(=O)Nc1ccc(-c2ccc(C#N)c(N(C)C)c2)c(Cl)c1 [Compound 360, N-[3-chloro-4-[4-cyano-3-(dimethylamino)phenyl]phenyl]-7-methyl-2,3-dioxo-1,4-dihydroquinoxaline-6-sulfonamide] |  | 100 to 1000 nM | 30 to 100 nM
Cc1cc(NS(=O)(=O)c2cc3[nH]c(=O)c(=O)[nH]c3cc2Cl)ccc1-c1ccccc1 [Compound 45, 7-chloro-N-(2-methyl-[1,1′-biphenyl]-4-yl)-2,3-dioxo-1,2,3,4-tetrahydroquinoxaline-6-sulfonamide] | 30 to 100 nM | 30 to 100 nM | 
COc1ccccc1-c1c(C)cc(NS(=O)(=O)c2cc3[nH]c(=O)c(=O)[nH]c3cc2C)cc1C [Compound 102, N-(2′-methoxy-2,6-dimethyl-[1,1′-biphenyl]-4-yl)-7-methyl-2,3-dioxo-1,2,3,4-tetrahydroquinoxaline-6-sulfonamide] | 100 to 1000 nM | 30 to 100 nM | 
O=c1[nH]c2cc(F)c(S(=O)(=O)Nc3ccc(-c4cccc(N5CCCC5)c4)c(Cl)c3)cc2[nH]c1=O [Compound 27, N-(2-chloro-3′-(pyrrolidin-1-yl)-[1,1′-biphenyl]-4-yl)-7-fluoro-2,3-dioxo-1,2,3,4-tetrahydroquinoxaline-6-sulfonamide] | < 30 nM | 1000 to 6000 nM | 

Structure (SMILES) | IC50 [1] | EC50 [2] | EC50 [1]
Cc1cc2[nH]c(=O)c(=O)[nH]c2cc1S(=O)(=O)Nc1cc(C)c(-c2ccco2)c(C)c1 [Compound 16, N-(4-(furan-2-yl)-3,5-dimethylphenyl)-7-methyl-2,3-dioxo-1,2,3,4-tetrahydroquinoxaline-6-sulfonamide] | < 30 nM | < 30 nM | 
CC(C)c1cc2[nH]c(=O)c(=O)[nH]c2cc1S(=O)(=O)Nc1ccc(OC(F)(F)F)cc1 [Compound 31, 7-isopropyl-2,3-dioxo-N-(4-(trifluoromethoxy)phenyl)-1,2,3,4-tetrahydroquinoxaline-6-sulfonamide] | < 30 nM | < 30 nM | 
Cc1cc(NS(=O)(=O)c2cc3[nH]c(=O)c(=O)[nH]c3cc2C)ccc1C(C)C [Compound 117, N-(4-isopropyl-3-methylphenyl)-7-methyl-2,3-dioxo-1,2,3,4-tetrahydroquinoxaline-6-sulfonamide] | 100 to 1000 nM | 100 to 1000 nM | 
CCc1ccccc1-c1ccc(NS(=O)(=O)c2cc3[nH]c(=O)c(=O)[nH]c3cc2C)cc1 [Compound 113, N-(2′-ethyl-[1,1′-biphenyl]-4-yl)-7-methyl-2,3-dioxo-1,2,3,4-tetrahydroquinoxaline-6-sulfonamide] | 100 to 1000 nM | 100 to 1000 nM | 
Cc1cc2[nH]c(=O)c(=O)[nH]c2cc1S(=O)(=O)Nc1ccc(-c2ccc3c(c2)OC(F)(F)O3)c(Cl)c1 [Compound 287, N-[3-chloro-4-(2,2-difluoro-1,3-benzodioxol-5-yl)phenyl]-7-methyl-2,3-dioxo-1,4-dihydroquinoxaline-6-sulfonamide] |  | 30 to 100 nM | 30 to 100 nM
Cc1cc(C)cc(-c2ccc(NS(=O)(=O)c3cc4[nH]c(=O)c(=O)[nH]c4cc3C)cc2Cl)c1 [Compound 248, N-[3-chloro-4-(3,5-dimethylphenyl)phenyl]-7-methyl-2,3-dioxo-1,4-dihydroquinoxaline-6-sulfonamide] |  | 100 to 1000 nM | 100 to 1000 nM
C#Cc1cc(NS(=O)(=O)c2cc3[nH]c(=O)c(=O)[nH]c3cc2C)ccc1-c1ccc(F)cc1 [Compound 378, N-[3-ethynyl-4-(4-fluorophenyl)phenyl]-7-methyl-2,3-dioxo-1,4-dihydroquinoxaline-6-sulfonamide] |  | < 30 nM | < 30 nM
Cc1cc2[nH]c(=O)c(=O)[nH]c2cc1S(=O)(=O)Nc1ccc(-c2ccc(S(C)(=O)=O)cc2F)c(Cl)c1 [Compound 262, N-[3-chloro-4-(2-fluoro-4-methylsulfonyl-phenyl)phenyl]-7-methyl-2,3-dioxo-1,4-dihydroquinoxaline-6-sulfonamide] |  | 1000 to 6000 nM | 1000 to 3500 nM
Cc1cc2[nH]c(=O)c(=O)[nH]c2cc1S(=O)(=O)Nc1ccc(Cl)cc1 [Compound 177, N-(4-chlorophenyl)-7-methyl-2,3-dioxo-1,2,3,4-tetrahydroquinoxaline-6-sulfonamide] | 100 to 1000 nM | 100 to 1000 nM | 
Cc1cc2[nH]c(=O)c(=O)[nH]c2cc1S(=O)(=O)Nc1ccc(-c2ccccc2C(N)=O)cc1 [Compound 126, 4′-((7-methyl-2,3-dioxo-1,2,3,4-tetrahydroquinoxaline)-6-sulfonamido)-[1,1′-biphenyl]-2-carboxamide] | 1000 to 3500 nM | 100 to 1000 nM | 
O=c1[nH]c2cc(OCC(F)(F)F)c(S(=O)(=O)Nc3ccc(OC(F)(F)F)cc3)cc2[nH]c1=O [Compound 276, 2,3-dioxo-7-(2,2,2-trifluoroethoxy)-N-[4-(trifluoromethoxy)phenyl]-1,4-dihydroquinoxaline-6-sulfonamide] |  | < 30 nM | 30 to 100 nM
Cc1cc(NS(=O)(=O)c2cc3[nH]c(=O)c(=O)[nH]c3cc2F)ccc1-c1ccoc1 [Compound 168, 7-fluoro-N-(4-(furan-3-yl)-3-methylphenyl)-2,3-dioxo-1,2,3,4-tetrahydroquinoxaline-6-sulfonamide] | 100 to 1000 nM | 1000 to 6000 nM | 
[2H]C([2H])([2H])c1cc2[nH]c(=O)c(=O)[nH]c2cc1S(=O)(=O)Nc1ccc(OC(F)(F)F)cc1 [Compound 217, 7-(methyl-d3)-2,3-dioxo-N-(4-(trifluoromethoxy)phenyl)-1,2,3,4-tetrahydroquinoxaline-6-sulfonamide] |  | < 30 nM | < 30 nM
Cc1cc(-c2ccc(NS(=O)(=O)c3cc4[nH]c(=O)c(=O)[nH]c4cc3C)cc2Cl)ccn1 [Compound 140, N-(3-chloro-4-(2-methylpyridin-4-yl)phenyl)-7-methyl-2,3-dioxo-1,2,3,4-tetrahydroquinoxaline-6-sulfonamide] | 100 to 1000 nM | 100 to 1000 nM | 
Cc1cc2[nH]c(=O)c(=O)[nH]c2cc1S(=O)(=O)Nc1ccc(Br)cc1 [Compound 97, N-(4-bromophenyl)-7-methyl-2,3-dioxo-1,2,3,4-tetrahydroquinoxaline-6-sulfonamide] | 100 to 1000 nM | 30 to 100 nM | 
Cc1cc2[nH]c(=O)c(=O)[nH]c2cc1S(=O)(=O)Nc1ccc(-c2ccc3c(C)c[nH]c3c2)c(Cl)c1 [Compound 352, N-[3-chloro-4-(3-methyl-1H-indol-6-yl)phenyl]-7-methyl-2,3-dioxo-1,4-dihydroquinoxaline-6-sulfonamide] |  | 100 to 1000 nM | 100 to 1000 nM
